# Laboratory results: ChEMBL document CHEMBL5518181, “Studies of antibacterial activity (in vitro and in vivo) and mode of action for des-acyl tridecaptins (DATs)” (Eur J Med Chem, 2024)
# Key:
# [1] = Cytotoxicity against human HepG2 cells incubated for 40 hrs by celltiter-glo luminescent cell viability assay; assay type: toxicity, cell-based
# Klebsiella pneumoniae = assay: Antibacterial activity against wild-type Klebsiella pneumoniae ATCC 13883 assessed as inhibition of bacterial growth incubated for 18 hrs; assay type: functional; conditions: read-out: MIC100
# Escherichia coli = assay: Antibacterial activity against wild-type Escherichia coli ATCC 25922 assessed as inhibition of bacterial growth incubated for 18 hrs; assay type: functional; conditions: read-out: MIC100
# [2] = Hemolytic activity in human red blood cells at 400 ug/ml incubated for 45 mins by spectrophotometric analysis relative to control; assay type: toxicity, cell-based, Erythrocyte; conditions: red blood cells (erythrocytes), at 400 µg/mL, read-out: Activity
Compound,IC50 at 40 h [1],MIC (Klebsiella pneumoniae),MIC (Escherichia coli),"hemolysis at 0.75 h, 400 ug/ml [2]"
CC[C@H](C)[C@@H](NC(=O)[C@@H](NC(=O)[C@H](CCC(=O)O)NC(=O)[C@H](Cc1ccccc1)NC(=O)[C@@H](CN)NC(=O)[C@H](CCN)NC(=O)[C@H](CO)NC(=O)[C@@H](Cc1c[nH]c2ccccc12)NC(=O)[C@@H](CO)NC(=O)CNC(=O)[C@@H](CCN)NC(=O)[C@H](NC(=O)[C@H](C)N)C(C)C)C(C)C)C(=O)N[C@@H](C)C(=O)O,> 170 µg/mL,> 64 µg/mL,> 64 µg/mL,0%
CC[C@H](C)[C@@H](NC(=O)[C@@H](NC(=O)[C@H](CCC(=O)O)NC(=O)[C@H](Cc1ccccc1)NC(=O)[C@@H](CCN)NC(=O)[C@H](CCN)NC(=O)[C@H](C)NC(=O)[C@@H](Cc1c[nH]c2ccccc12)NC(=O)[C@@H](CO)NC(=O)CNC(=O)[C@@H](CCN)NC(=O)[C@H](NC(=O)[C@H](C)N)C(C)C)C(C)C)C(=O)N[C@@H](C)C(=O)O,> 170 µg/mL,8 µg/mL,4 µg/mL,0%
CC[C@H](C)[C@@H](NC(=O)[C@@H](NC(=O)[C@H](CCC(=O)O)NC(=O)[C@H](Cc1ccccc1)NC(=O)[C@@H](CCN)NC(=O)[C@H](CCN)NC(=O)[C@H](CO)NC(=O)[C@@H](Cc1c[nH]c2ccccc12)NC(=O)[C@@H](CO)NC(=O)CNC(=O)[C@@H](CCN)NC(=O)[C@H](N)C(C)C)C(C)C)C(=O)N[C@H](C(=O)O)C(C)(C)C,43 µg/mL,32 µg/mL,32 µg/mL,12.1%
CC[C@H](C)[C@@H](NC(=O)[C@@H](NC(=O)[C@H](CCC(=O)O)NC(=O)[C@H](Cc1ccccc1)NC(=O)[C@@H](CCN)NC(=O)[C@H](CCN)NC(=O)[C@H](CO)NC(=O)[C@@H](C)NC(=O)[C@@H](CO)NC(=O)CNC(=O)[C@@H](CCN)NC(=O)[C@H](N)C(C)C)C(C)C)C(=O)N[C@@H](C)C(=O)O,> 170 µg/mL,> 64 µg/mL,> 64 µg/mL,0%
CC(C)[C@H](NC(=O)[C@H](CCC(=O)O)NC(=O)[C@H](Cc1ccccc1)NC(=O)[C@@H](CCN)NC(=O)[C@H](CCN)NC(=O)[C@H](CO)NC(=O)[C@@H](Cc1c[nH]c2ccccc12)NC(=O)[C@@H](CO)NC(=O)CNC(=O)[C@@H](CCN)NC(=O)[C@H](NC(=O)[C@H](C)N)C(C)C)C(=O)N[C@@H](C(=O)N[C@@H](C)C(=O)O)C(C)(C)C,23 µg/mL,1 µg/mL,2 µg/mL,71.2%
CC[C@H](C)[C@@H](NC(=O)[C@@H](NC(=O)[C@H](CCC(=O)O)NC(=O)[C@H](Cc1ccccc1)NC(=O)[C@@H](CCN)NC(=O)[C@H](CCN)NC(=O)[C@H](CO)NC(=O)[C@@H](Cc1c[nH]c2ccccc12)NC(=O)[C@@H](CO)NC(=O)CNC(=O)[C@@H](CCN)NC(=O)[C@H](NC(=O)[C@H](C)N)C(C)C)C(C)(C)C)C(=O)N[C@@H](C)C(=O)O,12 µg/mL,2 µg/mL,2 µg/mL,82.7%
CC[C@H](C)[C@@H](NC(=O)[C@@H](NC(=O)[C@H](CCC(=O)O)NC(=O)[C@H](Cc1ccccc1)NC(=O)[C@@H](CCN)NC(=O)[C@H](CCN)NC(=O)[C@H](CO)NC(=O)[C@@H](Cc1c[nH]c2ccccc12)NC(=O)[C@@H](CO)NC(=O)CNC(=O)[C@@H](CCN)NC(=O)[C@H](NC(=O)C(F)(F)CN)C(C)C)C(C)C)C(=O)N[C@@H](C)C(=O)O,> 170 µg/mL,> 64 µg/mL,> 64 µg/mL,0%
CC[C@H](C)[C@@H](NC(=O)[C@@H](NC(=O)[C@H](CCC(=O)O)NC(=O)[C@H](Cc1ccccc1)NC(=O)[C@@H](CCN)NC(=O)[C@H](C)NC(=O)[C@H](CO)NC(=O)[C@@H](Cc1c[nH]c2ccccc12)NC(=O)[C@@H](CO)NC(=O)CNC(=O)[C@@H](CCN)NC(=O)[C@H](N)C(C)C)C(C)C)C(=O)N[C@@H](C)C(=O)O,126 µg/mL,64 µg/mL,> 64 µg/mL,5.9%
CC[C@H](C)[C@@H](NC(=O)[C@@H](NC(=O)[C@H](CCC(=O)O)NC(=O)[C@H](Cc1ccccc1)NC(=O)[C@@H](CCN)NC(=O)[C@H](CCN)NC(=O)[C@H](CO)NC(=O)[C@@H](Cc1c[nH]c2ccccc12)NC(=O)[C@@H](CO)NC(=O)CNC(=O)[C@@H](CN)NC(=O)[C@H](NC(=O)[C@H](C)N)C(C)C)C(C)C)C(=O)N[C@@H](C)C(=O)O,> 170 µg/mL,> 64 µg/mL,> 64 µg/mL,0%
CC[C@H](C)[C@@H](NC(=O)[C@@H](NC(=O)[C@H](CCC(=O)O)NC(=O)[C@H](Cc1ccccc1)NC(=O)[C@@H](CCN)NC(=O)[C@H](CCN)NC(=O)[C@H](CO)NC(=O)[C@@H](Cc1c[nH]c2ccccc12)NC(=O)[C@@H](CO)NC(=O)CNC(=O)[C@@H](CCN)NC(=O)[C@H](N)CCN)C(C)C)C(=O)N[C@@H](C)C(=O)O,> 170 µg/mL,> 64 µg/mL,> 64 µg/mL,0%
CC[C@H](C)[C@@H](NC(=O)[C@@H](NC(=O)[C@H](CCC(=O)O)NC(=O)[C@H](Cc1ccccc1)NC(=O)[C@@H](CCN)NC(=O)[C@H](CCN)NC(=O)[C@H](CC(=O)O)NC(=O)[C@@H](Cc1c[nH]c2ccccc12)NC(=O)[C@@H](CO)NC(=O)CNC(=O)[C@@H](CCN)NC(=O)[C@H](N)C(C)C)C(C)C)C(=O)N[C@@H](C)C(=O)O,> 170 µg/mL,> 64 µg/mL,> 64 µg/mL,0%
CC[C@H](C)[C@@H](NC(=O)[C@@H](NC(=O)[C@H](CCC(=O)O)NC(=O)[C@H](C)NC(=O)[C@@H](CCN)NC(=O)[C@H](CCN)NC(=O)[C@H](CO)NC(=O)[C@@H](Cc1c[nH]c2ccccc12)NC(=O)[C@@H](CO)NC(=O)CNC(=O)[C@@H](CCN)NC(=O)[C@H](N)C(C)C)C(C)C)C(=O)N[C@@H](C)C(=O)O,> 170 µg/mL,64 µg/mL,64 µg/mL,2.5%
CC[C@H](C)[C@@H](NC(=O)[C@@H](NC(=O)[C@H](CCC(=O)O)NC(=O)[C@H](Cc1ccccc1)NC(=O)[C@@H](CCN)NC(=O)[C@H](CCN)NC(=O)[C@H](CO)NC(=O)[C@@H](Cc1c[nH]c2ccccc12)NC(=O)[C@@H](CO)NC(=O)CNC(=O)[C@@H](CCN)NC(=O)[C@H](N)CC(=O)O)C(C)C)C(=O)N[C@@H](C)C(=O)O,> 170 µg/mL,> 64 µg/mL,> 64 µg/mL,0%
CC(C)C[C@@H](NC(=O)[C@@H](NC(=O)[C@H](CCC(=O)O)NC(=O)[C@H](Cc1ccccc1)NC(=O)[C@@H](CCN)NC(=O)[C@H](CCN)NC(=O)[C@H](CO)NC(=O)[C@@H](Cc1c[nH]c2ccccc12)NC(=O)[C@@H](CO)NC(=O)CNC(=O)[C@@H](CCN)NC(=O)[C@H](N)C(C)C)C(C)C)C(=O)N[C@@H](C)C(=O)O,161 µg/mL,64 µg/mL,64 µg/mL,45.9%
